Measured values: PMC6744473, “Structure of the thermo-sensitive TRP channel TRP1 from the alga Chlamydomonas reinhardtii” (Nature Communications, 2019)
Counter-ions that a name gives are not always drawn.

Assays:
crTRP1 [1] = target: T1, crTRP1 (Chlamydomonas reinhardtii, UniProt Q0Z852); assay: planar lipid bilayer single-channel recording; assay type: biochemical; details: inhibitor 10 µM; 2.5 µM PIP2, 28 °C, +120 mV
T1 construct: HEK 293S GnTI-; purified in GDN or LMNG; homotetramer; from primer N-terminus MKVAPAPASGQP, C-terminus TAAAGH before the tag
T1 sequence (Q0Z852 1-901): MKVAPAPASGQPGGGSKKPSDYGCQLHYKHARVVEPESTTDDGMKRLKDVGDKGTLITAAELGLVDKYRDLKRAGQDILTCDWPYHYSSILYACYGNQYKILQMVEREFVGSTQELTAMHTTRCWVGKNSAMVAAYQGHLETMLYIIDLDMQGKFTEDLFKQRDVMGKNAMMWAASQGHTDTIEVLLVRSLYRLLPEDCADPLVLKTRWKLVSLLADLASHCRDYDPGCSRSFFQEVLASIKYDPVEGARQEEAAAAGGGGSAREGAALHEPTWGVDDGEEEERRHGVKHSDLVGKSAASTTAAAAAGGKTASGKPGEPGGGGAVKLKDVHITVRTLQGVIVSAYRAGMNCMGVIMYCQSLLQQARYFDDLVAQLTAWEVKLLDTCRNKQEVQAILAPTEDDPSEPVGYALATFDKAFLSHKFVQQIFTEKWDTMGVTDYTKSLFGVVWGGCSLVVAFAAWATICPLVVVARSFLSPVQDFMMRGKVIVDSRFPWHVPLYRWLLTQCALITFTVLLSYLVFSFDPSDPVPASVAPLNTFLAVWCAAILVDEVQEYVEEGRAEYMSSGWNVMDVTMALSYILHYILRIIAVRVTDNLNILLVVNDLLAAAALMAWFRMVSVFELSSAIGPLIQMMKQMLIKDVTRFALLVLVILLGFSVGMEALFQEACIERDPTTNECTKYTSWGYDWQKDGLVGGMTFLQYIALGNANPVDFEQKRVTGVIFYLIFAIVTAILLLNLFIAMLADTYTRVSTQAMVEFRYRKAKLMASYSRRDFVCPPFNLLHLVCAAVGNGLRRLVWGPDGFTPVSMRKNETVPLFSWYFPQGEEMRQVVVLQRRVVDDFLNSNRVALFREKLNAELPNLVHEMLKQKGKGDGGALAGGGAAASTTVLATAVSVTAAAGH

crTRP1 [2] = target: T2, crTRP1 (Chlamydomonas reinhardtii, UniProt Q0Z852); assay: planar lipid bilayer single-channel recording; assay type: biochemical; details: activator test; deletion borders not given, only primers; loss of activation
T2 construct: HEK 293S GnTI-; purified in GDN or LMNG; homotetramer; from primer N-terminus MKVAPAPASGQP, C-terminus TAAAGH before the tag

crTRP1 [3] = target: T1, crTRP1; assay: planar lipid bilayer single-channel recording; assay type: biochemical; details: activator 2.5 µM; POPG/POPC/POPE bilayer, pH 7.2, 28 °C; diC8 form added to both compartments
[4] = target: transient receptor potential (TRP) channel crTRP1 from Chlamydomonas reinhardtii (Chlamydomonas reinhardtii); assay: cryo-EM structure; crTRP1 in MSP2N2 nanodiscs (POPC:POPE 3:1; 150 mM KCl, 20 mM Hepes pH 7.4, 1 µM CaCl2, 20 µM MgCl2, no detergent); grids frozen at 22 °C; 3.45 Å; C2 symmetry; self-association: homotetramer
[5] = target: transient receptor potential (TRP) channel crTRP1 from Chlamydomonas reinhardtii (Chlamydomonas reinhardtii); assay: cryo-EM structure; crTRP1 in detergent GDN (20 mM Tris pH 8.0, 150 mM NaCl, 0.01% GDN, 1 mM BME, 10 mM TCEP added); grids frozen at 4 °C; 3.53 Å; self-association: homotetramer

With `CC(C)(C)c1ccc(NC(=O)N2CCN(c3ncccc3Cl)CC2)cc1` [BCTC, N-(4-tertiarybutylphenyl)-4-(3-cholorphyridin-2-yl)tetrahydropyrazine-1(2 H)-carbox-amide] the “Po change at 10 μM” value (crTRP1 [1]) was “BCTC) strongly suppressed crTRP1-mediated currents (Fig. 1g, h)”.
With `CCCCCCCC(=O)OC[C@H](COP(=O)(O)O[C@@H]1[C@H](O)[C@H](O)[C@@H](OP(=O)(O)O)[C@H](OP(=O)(O)O)[C@H]1O)OC(=O)CCCCCCC` [PIP2, 1-(1,2R-dioctanoylphosphatidyl)inositol-4,5-bisphosphate, trisodium salt] the “planar lipid bilayer single-channel recording” value (crTRP1 [2]) was “deleting the entire pre-S1 elbow resulted in a greatly reduced Po and loss of activation by PIP2” and the “planar lipid bilayer single-channel recording” value (crTRP1 [3]) was “Addition of PIP2 readily evoked channel openings”.
With “transient receptor potential (TRP) channel crTRP1 from Chlamydomonas reinhardtii (natural protein)” the stoichiometry N [4] was 4 and the stoichiometry N [5] was 4.
